Test results reported in article PMC12137728, “The hydroxamate based HDAC inhibitor WMJ-J-09 induces colorectal cancer cell death by targeting tubulin and downregulating survivin” (Scientific Reports, 2025).

Tested on: tubulin in HCT116 cells
Test: Microtubule assembly / polymerized tubulin (immunofluorescence, western blot)
Format: cell-based, human
Details: HCT116 cell lysate
Protocol: Following the indicated treatments, a lysis buffer containing NP-40 (0.5%), Tris (10 mM) (pH 7.0), PMSF (2 mM), NaCl (140 mM), leupeptin (0.2 mM), and pepstatin A (0.05 mM) was utilized to lyse cells to extract proteins. SDS-PAGE was utilized to separate protein samples in equal quantities, then transferred to a nitrocellulose membrane (Pall Corporation, Washington, NY, U.S.A.). Following transfer and 1-h blocking by incubation with TBST buffer containing 5% non-fat, the proteins immobilized on the membranes undergo primary antibody hybridization. Secondary antibodies conjugated with horseradish peroxidase were used to detect target proteins. Immunoreactivity was detected using the Western chemiluminescent HRP substrate kit, as per the manufacturer’s recommendations. We used a densitometer integrated into a scientific imaging system (Biospectrum AC System, UVP) to obtain quantitative data. We examined tubulin assembly as previously described [8]. […] Subsequently, the cells were washed with PBS twice and fixed with 4% paraformaldehyde at room temperature for 15 min. Cells were permeabilized by incubation with PBS containing Triton X-100 (0.1%) for 30 min. […] The distribution of tubulin was analyzed using a confocal microscope (Zeiss, LSM 410). Green fluorescence represented β-tubulin, while blue fluorescence (derived from DAPI) corresponds to nuclei.

`CC(=O)O[C@H]1C(=O)[C@@]2(C)[C@H]([C@H](OC(=O)c3ccccc3)[C@]3(O)C[C@H](OC(=O)[C@H](O)[C@@H](NC(=O)c4ccccc4)c4ccccc4)C(C)=C1C3(C)C)[C@]1(OC(C)=O)CO[C@@H]1C[C@@H]2O` [Paclitaxel, paclitaxel] was tested, and the polymerized tubulin fraction was “increased the polymeric tubulin”.
